Publication PMC4941645, “Oxidative Stress Induced by Pt(IV) Pro-drugs Based on the Cisplatin Scaffold and Indole Carboxylic Acids in Axial Position” (Scientific Reports, 2016)

Columns and labels:
[1] = system: A431 cervical carcinoma cells; assay: MTT cytotoxicity test, A431; type: cell-based, human; settings: A431, 72 h, ± S.D.
Protocol: The cytotoxic activity of the complexes and of the uncoordinated ligands was evaluated by the MTT test on a panel of human tumor cell lines containing examples of pancreatic (BxPC3), colorectal (HCT-15), breast (MCF-7), cervical (A431), and lung (A549) cancers as well as of melanoma (A375). For comparison purposes, the cytotoxicity of cisplatin was evaluated under the same experimental conditions.
Cisplatin was dissolved in 0.9% NaCl solution.
Human breast (MCF-7), colon (HCT-15), lung (A549) and pancreatic (BxPC3) carcinoma cell lines together with melanoma (A375) cells were obtained from American Type Culture Collection (ATCC, Rockville, MD). The human ovarian cancer cell line 2008 and its cisplatin resistant variant, C13*, were kindly provided by Prof. G. Marverti (Department of Biomedical Science of Modena University, Italy). Human cervical carcinoma (A431) cells were kindly provided by Prof. F. Zunino (Division of Experimental Oncology B, Istituto Nazionale dei Tumori, Milan, Italy). Cell lines were maintained in the logarithmic phase at 37 °C in a 5% carbon dioxide atmosphere using the following culture media containing 10% fetal calf serum (Euroclone, Milan, Italy), antibiotics (50 units/mL penicillin and 50 μg/mL streptomycin) and 2 mM L-glutamine: (i) RPMI-1640 medium (Euroclone) for 2008, C13*, MCF-7, HCT-15, A431 and BxPC3 cells, (ii) F-12 HAM’S (Sigma Chemical Co.) for A549 cells, iii) DMEM (Sigma Chemical Co.) for A375 cells.
The growth inhibitory effect toward tumor cells was evaluated by means of the MTT assay. Briefly, (3–8) × 10^3 cells/well, dependent upon the growth characteristics of the cell line, were seeded in 96-well microplates in growth medium (100 μL). After 24 h, the medium was removed and replaced with fresh medium containing the compound to be studied at the appropriate concentration. Triplicate cultures were established for each treatment. After 24, 48, or 72 h, each well was treated with 10 μL of a 5 mg/mL MTT saline solution and, after 5 h of incubation, 100 μL of a sodium dodecylsulfate (SDS) solution in 0.01 M HCl was added. After an overnight incubation, cell growth inhibition was detected by measuring the absorbance of each well at 570 nm using a Bio-Rad 680 microplate reader. The mean absorbance for each drug dose was expressed as a percentage of the control, untreated well absorbance and plotted vs drug concentration. The IC50 values, the drug concentrations that decrease the mean absorbance at 570 nm to 50% of that of untreated control wells, were calculated from the dose–response curves with the four-parameter logistic model (4PL). The final value is the mean ± S.D. of at least three independent experiments performed in triplicate.

[2] = Log P octanol/water, shake flask method with ICP-MS; type: physicochemical; settings: n-octanol / 0.9% NaCl water, Pt by ICP-MS
Protocol: Partition coefficients (logP values) for octanol/water partition were determined in order to examine whether a correlation exists between lipophilicity and accumulation into cells. The log P values obtained (Table 3) give the trend in lipophilicity as mono indole acid complex < succinate complex < acetate complex < bis indole acid complex < benzoate complex for both the IAA and the IPA series.
The logP values of the Pt(IV) compounds were determined using the shake flask method. The respective Pt(IV) complex was dissolved in 0.9% NaCl (w/v) ultrapure water (presaturated with n-octanol). The solutions were sonicated and filtered to remove undissolved Pt(IV) compounds. The initial Pt concentrations were determined by ICP-MS. Subsequently, the Pt(IV) solutions were added to an equal volume of n-octanol (presaturated with 0.9% NaCl (w/v) ultrapure water). The heterogeneous mixtures were shaken vigorously for 30 min before centrifuging at 4000 rpm for 30 min to achieve phase separation. The final Pt concentration in the aqueous phase was determined again by ICP-MS. The logarithm of the ratio of Pt concentrations in the organic and aqueous phases was calculated to determine the logP values. All experiments were done in duplicate.

[3] = system: nuclear DNA of A375 cells; assay: Nuclear DNA platination (GF-AAS); type: cell-based, human; settings: A375, 5 μM, 24 h
Protocol: It is well known that the main cellular target of platinum complexes is the DNA, and platination of nuclear DNA is a critical step in triggering the death of cancer cells by platinum-based drugs. On this basis, the amount of platinum bound to nuclear DNA was also assessed in A375 cells treated with the tested Pt(IV) complexes. Cells were treated for 24 h with 5 μM of the tested complexes, the nuclear DNA was isolated and the amount of Pt in each sample was determined by means of GF-AAS analysis. The results expressed as pg Pt/ng DNA are depicted in Fig. 7. […] In particular, 1P led to a roughly 60-fold higher DNA platination level with respect to cisplatin.
A375 cells (3 × 10^6) were seeded in 10 cm Petri dishes in 10 mL of culture medium. Subsequently, cells were treated with the tested complexes (5 μM) for 24 h. The DNA was extracted and purified by a commercial spin column quantification kit (Qiagen DNeasy Blood and Tissue Kit). Only highly purified samples (A260/A230 ≅ 1.8 and […]) were included for analysis to avoid any artifacts. The samples were completely dried and re-dissolved in 200 μL of Milli-Q water (18.2 MΩ) for at least 20 min at 65 °C in a shaking thermo-mixer, mineralized and analyzed for total Pt content by GF-AAS as described above.

A375 cells = assay: ROS production (CM-H2DCFDA probe); type: cell-based, human; settings: A375, 12.5 μM, compared with antimycin positive control
Protocol: ROS are products of normal cell metabolism but their levels can be increased upon exposure to toxic agents or interference with the cellular redox network. […] Consequently, cellular ROS levels upon treatment with equal doses (12.5 μM) of the different platinum complexes were monitored in A375 cancer cells by using the peroxide-sensitive fluorescent probe CM-H2DCFDA (5-(and-6)-chloromethyl-2′,7′-dichlorodihydrofluorescein diacetate, acetyl ester). Antimycin, a classical inhibitor of the mitochondrial respiratory chain at the level of complex III, was used as a positive control.
Figure 8 ROS production in A375 cells. Cells were preincubated in PBS/10 mM glucose medium for 20 min at 37 °C in the presence of 10 μM CM-DCFDA and then treated with equimolar doses (12.5 μM) of indole propionic acid Pt(IV) derivatives (panel A) or indole acetic acid Pt(IV) derivatives (panel B). The fluorescence of DCF was measured.
The production of ROS was measured in A375 cells (10^4 per well) grown for 24 h in 96-well plates in DMEM medium without phenol red (Sigma Chemical Co.). Cells were then washed with PBS and loaded with 10 μM 5-(and-6)-chloromethyl-2′,7′-dichlorodihydrofluorescein diacetate, acetyl ester (CM–H2DCFDA) (Molecular Probes-Invitrogen) for 25 min in the dark. Afterwards, cells were washed with PBS and incubated with increasing concentrations of the tested complexes. The fluorescence increase was estimated with a plate reader (Fluoroskan Ascent FL, Labsystem, Finland) at 485 (excitation) and 527 nm (emission). Antimycin (3 μM, Sigma Chemical Co.), a potent inhibitor of Complex III in the electron transport chain, was used as positive control.

Structure (SMILES)	IC50 [1] [µM]	Log P (octanol/water) [2]	DNA platination (in words) [3]	DNA platination level, fold higher than cisplatin ([3]; GF-AAS)	ROS production (in words) (A375 cells)
[NH2][Pt]([NH2])([OH])([Cl])([Cl])[O]C(=O)Cc1c[nH]c2ccccc12 [Complex 1A]	2.1 ± 1.04	−0.220 ± 0.04	most effective platination of cellular DNA	–	–
[NH2][Pt]([NH2])([OH])([Cl])([Cl])[O]C(=O)CCc1c[nH]c2ccccc12 [Complex 1P, cis,cis,trans-[Pt(NH3)2Cl2(IPA)(OH)]]	1.62 ± 0.34	−0.110 ± 0.05	highest degree of DNA platination	roughly 60	superior to that induced by antimycin
[NH2][Pt]([NH2])([Cl])([Cl])([O]C(=O)Cc1c[nH]c2ccccc12)[O]C(=O)c1ccccc1 [Complex 3A]	6.31 ± 0.94	−0.037 ± 0.04	most effective platination of cellular DNA	–	–
[NH2][Pt]([NH2])([Cl])([Cl])([O]C(=O)CCC(=O)O)[O]C(=O)Cc1c[nH]c2ccccc12 [Complex 4A]	3.94 ± 0.57	−0.190 ± 0.06	lowest DNA platination capability	–	did not alter the cellular ROS concentration
CC(=O)[O][Pt]([NH2])([NH2])([Cl])([Cl])[O]C(=O)Cc1c[nH]c2ccccc12 [Complex 5A]	3.07 ± 0.31	−0.130 ± 0.05	lowest DNA platination capability	–	did not alter the cellular ROS concentration
